The target in this experiment is T1, C3aR (Rattus norvegicus, UniProt O55197).
T1 construct: characterize for the first time a C3aR-induced innate immune response in vivo in rats; from tissue; host or cells: live male Wistar rats, hind paw
T1 sequence (O55197 1-473): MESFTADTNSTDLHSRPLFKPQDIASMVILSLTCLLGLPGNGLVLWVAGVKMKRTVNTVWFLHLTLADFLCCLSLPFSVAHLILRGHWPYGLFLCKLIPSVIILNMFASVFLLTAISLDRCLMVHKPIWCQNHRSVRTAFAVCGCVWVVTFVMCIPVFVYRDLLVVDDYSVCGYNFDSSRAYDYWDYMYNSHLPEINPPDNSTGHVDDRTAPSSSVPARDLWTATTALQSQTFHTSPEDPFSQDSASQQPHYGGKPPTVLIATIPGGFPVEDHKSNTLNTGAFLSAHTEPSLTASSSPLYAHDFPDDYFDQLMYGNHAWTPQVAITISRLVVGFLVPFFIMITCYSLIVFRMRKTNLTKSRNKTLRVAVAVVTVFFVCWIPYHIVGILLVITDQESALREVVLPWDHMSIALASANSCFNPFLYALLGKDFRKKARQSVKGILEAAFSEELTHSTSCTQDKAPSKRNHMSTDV
Description: Agonist-induced acute rat paw edema and immune responses. Format: in vivo. The protocol:
Male Wistar rats (8–9 weeks) were injected with BR103 (3, 350 μg in 100 μL isotonic saline) into the plantar surface of both hind paw pads using a 30G needle. The inhibitor cromolyn (20 mg/kg in 5% DMSO) was injected subcutaneously 30 min before the agonist. The antagonist BR111 (6, 5–20 mg/kg in olive oil) was administered orally as a single dose 2 h before the agonist. Paw thickness and width were measured using digital calipers (WPI) at 0, 0.5, 2, 6 and 24 h after agonist BR103 administration. Hind paw size is expressed as % change in area from baseline after 0.5 h and then normalized against maximum swelling induced by agonist alone. Researchers were not blinded to treatments given.
Rat paw tissue was collected and fixed in 4% paraformaldehyde (pH 7.4) for 2 h in the cold room (4 °C). The rat paw tissue was then transferred into falcon tubes containing 30% sucrose solution in PBS and left overnight in the cold room. The next day, rat paw tissue was embedded with the Optimal Cutting Temperature compound (OCT, Sakura Finetek, USA) and stored in the −80 °C freezer before being used for making cryo-sections for histological analysis. Frozen sections of 5 microns were prepared using a cryostat-microtome (Leica Biosystems, Germany) and stained using standard protocols on the same day. In normal histological staining, such as with alcian blue and safranin O and hematoxylin and eosin (H&E), samples were briefly washed with distilled water before staining. In alcian blue and safranin O, samples were stained with 0.1% alcian blue (Sigma-Aldrich, USA) and 0.5% safranin O (Sigma-Aldrich, USA) before being mounted in mounting medium. In H&E, samples were stained with hematoxylin (Sigma-Aldrich, USA) and 0.1% eosin (Sigma-Aldrich, USA) before being mounted in mounting medium. In immunohistochemistry, samples were briefly rinsed with PBS to remove OCT and incubated with blocking medium (PBS, 0.1% triton X-100, 10% horse serum) for 1 h at room temperature. Samples were incubated with primary antibody medium (PBS, 4% horse serum, 1:200 histamine or 1:200 of tryptase or 1:150 ED1 or 1:200 ED2 antibodies) overnight at 4 °C. The next day, samples were washed with PBS and were incubated with the secondary antibody medium (PBS, 4% horse serum, detection antibody 1:1000) for 1 h at room temperature. The samples were briefly rinsed, dried and counterstained with DAPI (Invitrogen, Australia). Primary antibodies for histamine (Sigma-Aldrich, USA, H2403, monoclonal rabbit anti-rat IgG, 1: 200), tryptase (Abcam, Australia, ab2378, monoclonal mouse anti-rat IgG, 1:200), ED1 (Serotec, UK, MCA341R, monoclonal mouse anti-rat, 1:150), ED2 (Serotec, UK, MCA3424R, monoclonal mouse anti-rat, 1:200) were purchased from commercial sources. Secondary detection antibody was purchased from (Invitrogen, Australia). ED1 & ED2 positive cells were quantified using FIJI/ImageJ 1.42q software, U.S. National Institutes of Health, Bethesda, MD, USA[44]. All microscope images were obtained using an Olympus BX-51 upright microscope with Olympus DP-71 12Mp colour camera, utilizing DP Capture and DP Manager software packages (Olympus, Tokyo, Japan). Researchers who performed histological analysis and scoring were blinded to the sample identity.
Rat paw tissues were collected and immediately frozen with liquid nitrogen. The frozen rat paw tissue samples were weighed and crushed into smaller pieces with a mortar and pestle in liquid nitrogen. The crushed tissues were added to MPO buffer (50 mM potassium phosphate buffer, pH 6.0) to make up a concentration of 200 mg/mL and homogenized using Zirconium oxide beads (Next Advance, USA) and the Bullet Blender® homogeniser (Next Advance, USA). The homogenized tissues were then diluted to 100 mg/mL with the MPO buffer containing 1% hexadecyl trimethylamonium bromide (Sigma-Aldrich, USA) and underwent three cycles of freeze, thaw, and sonication. […]

The mark [1] stands for this setting: 350 µg per paw i.pl., 0.5 h, vs vehicle.
Where [2] appears, read: male Wistar rats, 350 µg per paw, i.pl.

As to `Cc1[nH]c(C(c2ccccc2)c2ccccc2)nc1C(=O)N[C@@H](CCCNC(=N)N)C(=O)O` [Compound 3], under setting [1], the “Activated mast cells in paw tissue” value is recorded as “increased number of activated mast cells”, the “Histamine secretion in paw tissue” value is recorded as “increased histamine secretion”, the “Infiltration of ED1+ macrophages” value is on record as “temporal increase in infiltration of inflammatory ED1^+ macrophages” and the “Tryptase-positive cells in paw tissue” value is “decreased tryptase-positive cells”. Also, for the setting “350 µg per paw i.pl., vs vehicle”, the “Resident ED2+ macrophage cell numbers” value is on record as “without significantly affecting resident ED2^+ macrophage cell numbers”. For the setting “350 µg/paw i.pl., 0.5, 6, 24 h, vs vehicle”, the “Proinflammatory gene expression (Il1β, Il6, Tnf, Ccl3, Mcp1) in paw” value is recorded as “induced the upregulation of many proinflammatory genes”. Further, where the note is “350 µg/paw i.pl., 30 min, 6 h, 24 h, vs sham”, the “Myeloperoxidase (MPO) activity in paw” value is reported as “increased myeloperoxidase (MPO) activity at 6 h, but not at 30 min or 24 h”. Under setting [2], the Paw edema induction result is recorded as “induced an acute inflammatory edema” and the “Time of peak paw swelling” value is recorded as 0.5 h.

Source of the values: article PMC5570900, “Exploiting a novel conformational switch to control innate immunity mediated by complement protein C3a” (Nature Communications, 2017).
